Assay [1] has as its system phospho-S6RP (Ser 235/236) in RBE cells. Briefly: Cellular Proliferation Protocol (cellular phospho-S6RP HTRF), RBE cells. In kind it is cell-based. The conditions noted are these: 6 hours treatment, RBE or SNU-1079 cells, cell line not given. The method, boiled down: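 Phospho-S6RP (Ser 235/236) was quantified by HTRF in lysed RBE cells (2000/well) after a 6 h treatment at 37° C, with overnight antibody incubation at room temperature. IC50 values came from 4-parameter dose-response fits relative to DMSO vehicle.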

For assay [2], the system named is RBE cells. As to the kind of experiment: Cell Viability Protocol (CellTiterGlo), RBE cells. In kind it is cell-based. The following applies: RBE or SNU-1079 cells, 72 or 120 hour, cell line and time not given. In outline:
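After 72 h or 120 h compound exposure at 37° C, viability was read by CellTiterGlo as % of DMSO vehicle, with IC50 fitted by a 4-parameter curve. Cells had been seeded at 1200/well in 10% FBS RPMI 1640 and allowed 24 h before dosing.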

Assay [3] addresses SRC (Homo sapiens, UniProt P12931). Briefly: SRC Biochemical Assay Protocol (microfluidic mobility shift assay, FLPeptide4 substrate). The method, boiled down:
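Mobility-shift readout of phosphorylated FLPeptide4 (1.5 μM) after 90 min kinase reaction with 50 μM ATP and 0.26 nM SRC in pH 7.4 HEPES buffer. Compounds, tested 0.0017–100 μM, were preincubated 30 min with enzyme and peptide; IC50 from 4-parameter logistic fit versus neutral controls.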

In patent US20250154154A1 (Relay Binney Street, 2nd Floor, priority 2020, published 2025) one finds IC50 data, which are given here for 28 compounds.

Chain of SRC (P12931 whole entry, species assumed): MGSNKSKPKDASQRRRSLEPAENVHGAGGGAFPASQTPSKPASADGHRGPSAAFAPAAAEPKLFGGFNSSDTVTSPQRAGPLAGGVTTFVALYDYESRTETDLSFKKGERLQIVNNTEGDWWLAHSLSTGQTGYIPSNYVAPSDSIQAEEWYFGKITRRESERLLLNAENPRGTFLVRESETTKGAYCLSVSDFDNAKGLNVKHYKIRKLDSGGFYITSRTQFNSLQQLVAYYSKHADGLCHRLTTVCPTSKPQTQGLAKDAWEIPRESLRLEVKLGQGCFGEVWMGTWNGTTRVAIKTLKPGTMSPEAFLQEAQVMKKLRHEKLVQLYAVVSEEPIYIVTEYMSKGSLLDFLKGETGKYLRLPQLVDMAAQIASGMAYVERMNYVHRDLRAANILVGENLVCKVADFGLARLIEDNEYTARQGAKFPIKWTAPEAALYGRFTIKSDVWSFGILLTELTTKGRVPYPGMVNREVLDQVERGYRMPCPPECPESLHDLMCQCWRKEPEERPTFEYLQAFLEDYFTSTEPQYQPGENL

On to `C=CC(=O)N1CCC(N2CC(C#Cc3c(-c4ccc(Oc5ccccc5)cn4)c4c(N)ncnc4n3C)C2)CC1` [II-313], for which the half-inhibitory concentration (IC50) in assay [1], in assay [2] and in assay [3] was 10 to 1000 nM each time.
For the compound `C=CC(=O)N1CC[C@H](N2CC(C#Cc3c(-c4ccc(Cl)c(C)c4)c4c(N)ncnc4n3C(C)C)C2)[C@H](F)C1` [II-111], the IC50 in assay [1] is 10 to 1000 nM; in assay [2], 10 to 1000 nM; in assay [3] it was at most 10 nM.
Consider `C=CC(=O)N1CCC(C#Cc2c(-c3ccc(Oc4ccccc4)cc3)c3c(N)ncnc3n2C(C)C(=O)OC)CC1` (stereo not drawn) [Example I-42], for which the IC50 in assay [1] (6 h), in assay [2] and in assay [3] was 10 to 1000 nM throughout.
On to `Cc1ccnc(Oc2ccc(-c3c(C#C[C@@H]4[C@H]5CN(C(=O)/C=C/CN(C)C)C[C@@H]45)n(C)c4ncnc(N)c34)cc2)c1` [II-241, (E)-1-((1R,5S,6s)-6-((4-amino-7-methyl-5-(4-((4-methylpyridin-2-yl)oxy)phenyl)-7H-pyrrolo[2,3-d]pyrimidin-6-yl)ethynyl)-3-azabicyclo[3.1.0]hexan-3-yl)-4-(dimethylamino) but-2-en-1-one], for which the IC50 in assay [1], in assay [2] and in assay [3] was 10 to 1000 nM throughout.
`C=CC(=O)N1CCC(N2CC(C#Cc3c(-c4ccc(OC5COC5)cc4)c4c(N)ncnc4n3C(C)C)C2)CC1` [II-88]: the IC50 in assay [1], in assay [2] and in assay [3] was 1000 to 10000 nM each time.
With `C=CS(=O)(=O)N1CC[C@@H](N2CC(C#Cc3c(-c4ccc(Oc5ccccc5)c(OC)c4)c4c(N)ncnc4n3C)C2)[C@@H](O)C1` [II-82], the IC50 in assay [1] is 10 to 1000 nM; in assay [2], at most 10 nM; in assay [3], at most 10 nM.
For `C=CC(=O)N1C[C@@H]2[C@@H](C#Cc3c(-c4ccc(Oc5cccc(C)n5)cc4)c4c(N)ncnc4n3C)[C@@H]2C1` [II-206, 1-[(1R,5S,6S)-6-[2-(4-amino-7-methyl-5-[4-[(6-methylpyridin-2-yl)oxy]phenyl]-7H-pyrrolo[2,3-d]pyrimidin-6-yl)ethynyl]-3-azabicyclo[3.1.0]hexan-3-yl]prop-2-en-1-one], the IC50 in assay [1] (6 h) was at most 10 nM; in assay [2], at most 10 nM; in assay [3], 10 to 1000 nM.
`COc1cc(Oc2cccc(C)n2)ccc1-c1c(C#C[C@@H]2[C@H]3CN(C(=O)/C=C/CN(C)C)C[C@@H]23)n(C)c2ncnc(N)c12` [II-226, (E)-1-((1R,5S,6s)-6-((4-amino-5-(2-methoxy-4-((6-methylpyridin-2-yl)oxy)phenyl)-7-methyl-7H-pyrrolo[2,3-d]pyrimidin-6-yl)ethynyl)-3-azabicyclo[3.1.0]hexan-3-yl)-4-(dimethylamino) but-2-en-1-one]: the IC50 in assay [1] (6 h), in assay [2] and in assay [3] was 10 to 1000 nM throughout.
Turning to `C=CC(=O)N1CCC(N2CC(F)(C#Cc3c(-c4ccc(Oc5ccccc5)cc4)c4c(N)ncnc4n3C)C2)C(O)C1` (stereo not drawn) [III-1], the IC50 was at most 10 nM in assay [1] (6 h), at most 10 nM in assay [2] and 10 to 1000 nM in assay [3].
Regarding `C=CC(=O)N1CC[C@@H](N2CC(C#Cc3c(-c4ccc(Oc5ccsn5)cc4)c4c(N)ncnc4n3C)C2)[C@@H](O)C1` [II-12], the half-inhibitory concentration (IC50) in assay [1] (6 h), in assay [2] and in assay [3] was 10 to 1000 nM throughout.
Turning to `C=CC(=O)N1CCC(N2CC(C#Cc3c(-c4ccc(Oc5ccccc5)cc4)c4c(N)ncnc4n3[C@@H](C)CO)C2)CC1` [II-169, (S)-1-(4-(3-((4-amino-7-(1-hydroxypropan-2-yl)-5-(4-phenoxyphenyl)-7H-pyrrolo[2,3-d]pyrimidin-6-yl)ethynyl)azetidin-1-yl)piperidin-1-yl)prop-2-en-1-one], the IC50 in assay [1] (6 h) is at most 10 nM; in assay [2], at most 10 nM; in assay [3], 10 to 1000 nM.
`C=CC(=O)N1C[C@@H]2[C@@H](C#Cc3c(-c4ccc(Oc5ccccc5)cc4)c4c(N)ncnc4n3CCOC)[C@@H]2C1` [II-229, 1-((1R,5S,6s)-6-((4-amino-7-(2-methoxyethyl)-5-(4-phenoxyphenyl)-7H-pyrrolo[2,3-d]pyrimidin-6-yl)ethynyl)-3-azabicyclo[3.1.0]hexan-3-yl)prop-2-en-1-one]: the concentration for half-maximal inhibition (IC50) in assay [1] (6 h), in assay [2] and in assay [3] was at most 10 nM in each case.
Consider `CCn1c(C#C[C@@H]2[C@H]3CN(C(=O)/C=C/CN(C)C)C[C@@H]23)c(-c2cccc3c2OCO3)c2c(N)ncnc21` [II-117], for which the 50% inhibitory concentration (IC50) in assay [1], in assay [2] and in assay [3] was at most 10 nM each time.
In the case of `C=CC(=O)N1CCC(N2CC(C#Cc3c(-c4ccc(Oc5ccccc5)cc4)c4c(N)ncnc4n3C(C)C)C2)CC1` [Example I-44], the IC50 in assay [1] (6 h), in assay [2] and in assay [3] was at most 10 nM in each case.
For the compound `C=CC(=O)N1CC2(CC(C#Cc3c(-c4ccc(Oc5ccccc5)cc4)c4c(N)ncnc4n3C(C)C)C2)C1` [Example I-19], the 50% inhibitory concentration (IC50) in assay [1] (6 h), in assay [2] and in assay [3] was at most 10 nM throughout.
`Cn1c(C#CC2CN(C(=O)/C=C/CN3CC(F)C3)C2)c(-c2ccc(Oc3ccccc3)cc2)c2c(N)ncnc21` [II-172, (E)-1-(3-((4-amino-7-methyl-5-(4-phenoxyphenyl)-7H-pyrrolo [2,3-d]pyrimidin-6-yl)ethynyl)azetidin-1-yl)-4-(3-fluoroazetidin-1-yl)but-2-en-1-one]: the IC50 in assay [1] (6 h), in assay [2] and in assay [3] was 10 to 1000 nM each time.
Turning to `C=CC(=O)N1CCC(N2CC(C#Cc3c(-c4ccc(Cl)c(OC)n4)c4c(N)ncnc4n3C)C2)CC1CO` (stereo not drawn) [II-319], the IC50 in assay [1], in assay [2] and in assay [3] was 10 to 1000 nM each time.
Turning to `C=CC(=O)NC1(C(=O)N2CCC(C#Cc3c(-c4ccc(Oc5ccccc5)cc4)c4c(N)ncnc4n3C)CC2)CN(C)C1` [II-196, N-(3-(4-((4-amino-7-methyl-5-(4-phenoxyphenyl)-7H-pyrrolo[2,3-d]pyrimidin-6-yl)ethynyl)piperidine-1-carbonyl)-1-methylazetidin-3-yl)acrylamide], the IC50 in assay [1] (6 h) was at most 10 nM; in assay [2] it was at most 10 nM; in assay [3] it was 10 to 1000 nM.
Take `C=CC(=O)N1CC[C@H](N2CC(C#Cc3c(-c4ccc(Cl)c(C)c4)c4c(N)ncnc4n3CC)C2)[C@H](O)C1` [II-113]: the IC50 in assay [1] was 10 to 1000 nM; in assay [2], 10 to 1000 nM; in assay [3], at most 10 nM.
As for `Cn1c(C#CC2CCCN(C(=O)/C=C/CN3CCOCC3)CC2)c(-c2ccc(Oc3ccccc3)cc2)c2c(N)ncnc21` (stereo not drawn) [II-181, (E)-1-(4-((4-amino-7-methyl-5-(4-phenoxyphenyl)-7H-pyrrolo[2,3-d]pyrimidin-6-yl)ethynyl)azepan-1-yl)-4-morpholinobut-2-en-1-one], the figures for the half-inhibitory concentration (IC50) in assay [1] (6 h), in assay [2] and in assay [3] were 1000 to 10000 nM, 1000 to 10000 nM and 10 to 1000 nM, respectively.
Regarding `C=CC(=O)N1CCC(N2CC(C#Cc3c(-c4ccc(OC(F)(F)F)cc4)c4c(N)ncnc4n3C)C2)CC1` [II-103], the IC50 in assay [1], in assay [2] and in assay [3] was 10 to 1000 nM throughout.
Take `C=CC(=O)N1CCC(N2CC(C#Cc3c(-c4ccc(C5CC5)cc4)c4c(N)ncnc4n3C)C2)CC1` [II-99]: the half-inhibitory concentration (IC50) in assay [1], in assay [2] and in assay [3] was 10 to 1000 nM in each case.
With `C=CC(=O)N1CC[C@H](N2CC(C#Cc3c(-c4ccc(F)c5c4OCO5)c4c(N)ncnc4n3C(C)C)C2)[C@H](F)C1` [II-286, 1-((3R,4S)-4-(3-((4-amino-5-(7-fluorobenzo[d][1,3]dioxol-4-yl)-7-isopropyl-7H-pyrrolo[2,3-d]pyrimidin-6-yl)ethynyl)azetidin-1-yl)-3-fluoropiperidin-1-yl)prop-2-en-1-one], the values for the half-inhibitory concentration (IC50) in assay [1] (6 h), in assay [2] and in assay [3] were at most 10 nM, 10 to 1000 nM and at most 10 nM, respectively.
As for `C=CC(=O)N1CC[C@@H](N2CC(C#Cc3c(-c4ccc(Oc5cccc(C)n5)c(Cl)c4)c4c(N)ncnc4n3C)C2)[C@@H](O)C1` [II-20], the IC50 in assay [1], in assay [2] and in assay [3] was 10 to 1000 nM each time.
For the compound `C=CC(=O)N1C[C@@H]2[C@@H](C#Cc3c(-c4ccc(Cl)c(OC)c4)c4c(N)ncnc4n3C(C)C)[C@@H]2C1` [II-271], the IC50 in assay [1] (6 h), in assay [2] and in assay [3] was at most 10 nM in each case.
Consider `C=CC(=O)N1CCC(N2CC(C#Cc3c(-c4ccc(Oc5ccccc5)c(OC)c4)c4c(N)ncnc4n3C)C2)C[C@H]1CO` (stereo partly drawn) [II-248, 1-((2S)-4-(3-((4-amino-5-(3-methoxy-4-phenoxyphenyl)-7-methyl-7H-pyrrolo[2,3-d]pyrimidin-6-yl)ethynyl)azetidin-1-yl)-2-(hydroxymethyl)piperidin-1-yl)prop-2-en-1-one], for which the results for the concentration for half-maximal inhibition (IC50) in assay [1] (6 h), in assay [2] and in assay [3] were 10 to 1000 nM, 10 to 1000 nM and at most 10 nM, respectively.
On to `C=CC(=O)N1CCC(N2CC(C#Cc3c(-c4cccc(Cl)c4OC)c4c(N)ncnc4n3C)C2)CC1` [II-264], for which the IC50 in assay [1] (6 h), in assay [2] and in assay [3] was 1000 to 10000 nM each time.
As to `C=CC(=O)N1CCC(N2CC(C#Cc3c(-c4ccc(OC)c(OC)c4)c4c(N)ncnc4n3C)C2)CC1` [II-106], the half-maximal inhibitory concentration (IC50) in assay [1], in assay [2] and in assay [3] was 10 to 1000 nM each time.
